Reference: US6706663B2, “Herbicidal 3-heterocyclic substituted benzisothiazole and benzisoxazole compounds” (Wyeth, priority 2000, dated 2004)

Assays:
[1] = system: ZEAMX (Corn, Field); experiment: Postemergence herbicidal evaluation; assay type: in vivo, Zea mays, L.; conditions: for ZEAMX herbicidal rating: postemergence
Outline: (§1)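 Visual 0–9 injury scores versus control plants, covering stand, vigour, malformation, size, chlorosis and general appearance, taken four to five weeks post-spray and averaged over replicate tests. Plants were sprayed at roughly two weeks old and held on greenhouse benches.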

[2] = system: IPOHE (Ipomoea hederacea); experiment: Preemergence herbicidal evaluation; assay type: in vivo, (L.) Jacq.; conditions: rated 4-5 weeks after treatment
[3] = system: ORYSAT (Rice, Tebonnet); experiment: Postemergence herbicidal evaluation; assay type: in vivo, Oryza sativa, (L.) Tebonnet; conditions: for ORYSAT herbicidal rating: postemergence
Outline: as §1

[4] = system: GLXMAW (Soybean, Williams); experiment: Preemergence herbicidal evaluation; assay type: in vivo, Glycine max, (L.) Merr. cv Williams; conditions: rated 4-5 weeks after treatment
[5] = system: TRZAWR (Wheat, Winter, cv Riband); experiment: Preemergence herbicidal evaluation; assay type: in vivo, Triticum aestivum; conditions: rated 4-5 weeks after treatment
Outline: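 Visual 0-9 rating versus untreated control, taken four to five weeks post-treatment, scoring stand, vigor, malformation, size, chlorosis and overall appearance. Compound applied as aqueous acetone spray to freshly seeded soil cups, then kept under standard greenhouse care.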

[6] = system: ECHORC (Echinochloa oryzoides); experiment: Flooded paddy, preemergence weed control; assay type: in vivo, Echinochloa oryzoides (Ard.) Fritsch.; conditions: rated 3-4 weeks after treatment, 0-9 rating scale
Outline: (§2)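 Visual 0–9 ratings versus controls scored stand, vigor, malformation, size, chlorosis and overall appearance. Plants grew from seeds or propagating organs sown 0.5 cm deep in silt loam, with water held 1.5–3 cm above the soil for the whole test under greenhouse care.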

[7] = system: ORYSAT (Rice, Tebonnet); experiment: Preemergence herbicidal evaluation; assay type: in vivo, Oryza sativa, (L.) Tebonnet; conditions: rated 4-5 weeks after treatment
[8] = system: AMBEL (Ambrosia artemisifolia); experiment: Postemergence herbicidal evaluation; assay type: in vivo, L.; conditions: for AMBEL herbicidal rating: postemergence
Outline: as §1

[9] = system: CHEAL (Chenopodium album); experiment: Postemergence herbicidal evaluation; assay type: in vivo, L.; conditions: for CHEAL herbicidal rating: postemergence
Outline: as §1

[10] = system: CASOB (Cassia obtusifolia); experiment: Postemergence herbicidal evaluation; assay type: in vivo, L.; conditions: for CASOB herbicidal rating: postemergence
Outline: as §1

[11] = system: SAGPY (Sagittaria pygmaea); experiment: Flooded paddy, preemergence weed control; assay type: in vivo, L.; conditions: rated 3-4 weeks after treatment, 0-9 rating scale
Outline: as §2

[12] = system: CYPIR (Cyperus iria); experiment: Flooded paddy, preemergence weed control; assay type: in vivo; conditions: rated 3-4 weeks after treatment, 0-9 rating scale
Outline: as §2

[13] = system: ECHCG (Echinochloa crus-galli); experiment: Postemergence herbicidal evaluation; assay type: in vivo, (L.) Beau; conditions: for ECHCG herbicidal rating: postemergence
Outline: as §1

C[C@H]1OC(c2nsc3ccc(-n4c(=O)cc(C(F)(F)F)n(C)c4=O)cc23)O[C@@H]1C [Compound 48, 3-[3-[(4R,5R)-4,5-dimethyl-1,3-dioxolan-2-yl]-1,2-benzisothiazol-5-yl]-1-methyl-6-(trifluoromethyl)uracil]
Postemergence herbicidal rating, ZEAMX ([1]; rate 0.0320 kg/ha): 4.5
Postemergence herbicidal rating, ZEAMX ([1]; rate 0.0620 kg/ha): 5.7
Preemergence herbicidal rating IPOHE ([2]; Rate 0.0620 kg/ha): 8.0
Preemergence herbicidal rating IPOHE ([2]; Rate 0.1250 kg/ha): 8.5
Preemergence herbicidal rating IPOHE ([2]; Rate 0.2500 kg/ha): 9.0
Postemergence herbicidal rating, ORYSAT ([3]; rate 0.0320 kg/ha): 5.5
Postemergence herbicidal rating, ORYSAT ([3]; rate 0.0620 kg/ha): 6.0
Preemergence herbicidal rating GLXMAW ([4]; Rate 0.0620 kg/ha): 9.0
Preemergence herbicidal rating GLXMAW ([4]; Rate 0.1250 kg/ha): 9.0
Preemergence herbicidal rating GLXMAW ([4]; Rate 0.2500 kg/ha): 9.0
Preemergence herbicidal rating TRZAWR ([5]; Rate 0.0620 kg/ha): 6.0
Preemergence herbicidal rating TRZAWR ([5]; Rate 0.1250 kg/ha): 8.0
Preemergence herbicidal rating TRZAWR ([5]; Rate 0.2500 kg/ha): 8.0
herbicidal rating, ECHORC ([6]; rate 0.0080 kg/ha): 8.0
herbicidal rating, ECHORC ([6]; rate 0.0320 kg/ha): 9.0
herbicidal rating, ECHORC ([6]; rate 0.1250 kg/ha): 9.0
Preemergence herbicidal rating ORYSAT ([7]; Rate 0.0620 kg/ha): 7.5
Preemergence herbicidal rating ORYSAT ([7]; Rate 0.1250 kg/ha): 8.0
Preemergence herbicidal rating ORYSAT ([7]; Rate 0.2500 kg/ha): 9.0
Postemergence herbicidal rating, AMBEL ([8]; rate 0.0320 kg/ha): 9.0
Postemergence herbicidal rating, AMBEL ([8]; rate 0.0620 kg/ha): 9.0
Postemergence herbicidal rating, CHEAL ([9]; rate 0.0320 kg/ha): 9.0
Postemergence herbicidal rating, CHEAL ([9]; rate 0.0620 kg/ha): 9.0
Postemergence herbicidal rating, CASOB ([10]; rate 0.0320 kg/ha): 1.0
Postemergence herbicidal rating, CASOB ([10]; rate 0.0620 kg/ha): 7.0
herbicidal rating, SAGPY ([11]; rate 0.0080 kg/ha): 0.0
herbicidal rating, SAGPY ([11]; rate 0.0320 kg/ha): 7.5
herbicidal rating, SAGPY ([11]; rate 0.1250 kg/ha): 9.0
herbicidal rating, CYPIR ([12]; rate 0.0080 kg/ha): 0.0
herbicidal rating, CYPIR ([12]; rate 0.0320 kg/ha): 8.0
herbicidal rating, CYPIR ([12]; rate 0.1250 kg/ha): 9.0
Postemergence herbicidal rating, ECHCG ([13]; rate 0.0320 kg/ha): 5.0
Postemergence herbicidal rating, ECHCG ([13]; rate 0.0620 kg/ha): 3.0

Cc1nn(-c2nsc3ccc(-n4c(=O)cc(C(F)(F)F)n(C)c4=O)cc23)c(C)c1C [Compound 49, 1-methyl-6-(trifluoromethyl)-3-[3-(3,4,5-trimethylpyrazol-1-yl)-1,2-benzisothiazol-5-yl]uracil]
ZEAMX herbicidal rating ([1]; rate 0.0320 kg/ha): 0.5
ZEAMX herbicidal rating ([1]; rate 0.0620 kg/ha): 2.5
Preemergence herbicidal rating IPOHE ([2]; Rate 0.0620 kg/ha): 0.0
Preemergence herbicidal rating IPOHE ([2]; Rate 0.1250 kg/ha): 0.0
Preemergence herbicidal rating IPOHE ([2]; Rate 0.2500 kg/ha): 0.0
ORYSAT herbicidal rating ([3]; rate 0.0320 kg/ha): 0.5
ORYSAT herbicidal rating ([3]; rate 0.0620 kg/ha): 1.5
Preemergence herbicidal rating GLXMAW ([4]; Rate 0.0620 kg/ha): 0.0
Preemergence herbicidal rating GLXMAW ([4]; Rate 0.1250 kg/ha): 0.0
Preemergence herbicidal rating GLXMAW ([4]; Rate 0.2500 kg/ha): 0.0
Preemergence herbicidal rating TRZAWR ([5]; Rate 0.0620 kg/ha): 0.0
Preemergence herbicidal rating TRZAWR ([5]; Rate 0.1250 kg/ha): 0.0
Preemergence herbicidal rating TRZAWR ([5]; Rate 0.2500 kg/ha): 0.0
herbicidal rating, ECHORC ([6]; rate 0.0320 kg/ha): 0.0
herbicidal rating, ECHORC ([6]; rate 0.1250 kg/ha): 0.0
Preemergence herbicidal rating ORYSAT ([7]; Rate 0.0620 kg/ha): 0.0
Preemergence herbicidal rating ORYSAT ([7]; Rate 0.1250 kg/ha): 0.0
Preemergence herbicidal rating ORYSAT ([7]; Rate 0.2500 kg/ha): 0.0
AMBEL herbicidal rating ([8]; rate 0.0320 kg/ha): 0.0
AMBEL herbicidal rating ([8]; rate 0.0620 kg/ha): 0.0
CHEAL herbicidal rating ([9]; rate 0.0320 kg/ha): 0.0
CHEAL herbicidal rating ([9]; rate 0.0620 kg/ha): 0.0
CASOB herbicidal rating ([10]; rate 0.0320 kg/ha): 0.0
CASOB herbicidal rating ([10]; rate 0.0620 kg/ha): 0.0
herbicidal rating, SAGPY ([11]; rate 0.0320 kg/ha): 0.0
herbicidal rating, SAGPY ([11]; rate 0.1250 kg/ha): 0.0
herbicidal rating, CYPIR ([12]; rate 0.0320 kg/ha): 0.0
herbicidal rating, CYPIR ([12]; rate 0.1250 kg/ha): 0.0
ECHCG herbicidal rating ([13]; rate 0.0320 kg/ha): 0.0
ECHCG herbicidal rating ([13]; rate 0.0620 kg/ha): 0.0

C[C@@H]1C[C@H](C)OC(c2nsc3ccc(-n4c(=O)cc(C(F)(F)F)n(C)c4=O)cc23)O1 (stereo partly drawn) [Compound 50, 3-[3-[(4R,6S)-4,6-dimethyl-m-dioxan-2-yl]-1,2-benzisothiazol-5-yl]-1-methyl-6-(trifluoromethyl)uracil]
ZEAMX herbicidal rating ([1]; rate 0.0320 kg/ha): 4.0
ZEAMX herbicidal rating ([1]; rate 0.0620 kg/ha): 5.0
Preemergence herbicidal rating IPOHE ([2]; Rate 0.0620 kg/ha): 8.0
Preemergence herbicidal rating IPOHE ([2]; Rate 0.1250 kg/ha): 7.5
Preemergence herbicidal rating IPOHE ([2]; Rate 0.2500 kg/ha): 9.0
ORYSAT herbicidal rating ([3]; rate 0.0320 kg/ha): 5.5
ORYSAT herbicidal rating ([3]; rate 0.0620 kg/ha): 4.5
Preemergence herbicidal rating GLXMAW ([4]; Rate 0.0620 kg/ha): 7.5
Preemergence herbicidal rating GLXMAW ([4]; Rate 0.1250 kg/ha): 9.0
Preemergence herbicidal rating GLXMAW ([4]; Rate 0.2500 kg/ha): 8.0
Preemergence herbicidal rating TRZAWR ([5]; Rate 0.0620 kg/ha): 7.0
Preemergence herbicidal rating TRZAWR ([5]; Rate 0.1250 kg/ha): 8.0
Preemergence herbicidal rating TRZAWR ([5]; Rate 0.2500 kg/ha): 9.0
herbicidal rating, ECHORC ([6]; rate 0.0080 kg/ha): 7.0
herbicidal rating, ECHORC ([6]; rate 0.0320 kg/ha): 7.5
herbicidal rating, ECHORC ([6]; rate 0.1250 kg/ha): 9.0
Preemergence herbicidal rating ORYSAT ([7]; Rate 0.0620 kg/ha): 6.5
Preemergence herbicidal rating ORYSAT ([7]; Rate 0.1250 kg/ha): 8.5
Preemergence herbicidal rating ORYSAT ([7]; Rate 0.2500 kg/ha): 9.0
AMBEL herbicidal rating ([8]; rate 0.0320 kg/ha): 9.0
AMBEL herbicidal rating ([8]; rate 0.0620 kg/ha): 9.0
CHEAL herbicidal rating ([9]; rate 0.0320 kg/ha): 8.0
CHEAL herbicidal rating ([9]; rate 0.0620 kg/ha): 9.0
CASOB herbicidal rating ([10]; rate 0.0320 kg/ha): 5.0
CASOB herbicidal rating ([10]; rate 0.0620 kg/ha): 5.0
herbicidal rating, SAGPY ([11]; rate 0.0080 kg/ha): 0.0
herbicidal rating, SAGPY ([11]; rate 0.0320 kg/ha): 0.0
herbicidal rating, SAGPY ([11]; rate 0.1250 kg/ha): 4.5
herbicidal rating, CYPIR ([12]; rate 0.0080 kg/ha): 0.0
herbicidal rating, CYPIR ([12]; rate 0.0320 kg/ha): 7.5
herbicidal rating, CYPIR ([12]; rate 0.1250 kg/ha): 8.0
ECHCG herbicidal rating ([13]; rate 0.0320 kg/ha): 3.0
ECHCG herbicidal rating ([13]; rate 0.0620 kg/ha): 3.0
